Earlier results in PMC3176332 (European journal of medicinal chemistry, 2009).

System: ERβ
Settings: relative to estradiol

Structure (SMILES): O=c1c(-c2ccc(O)cc2)coc2cc(O)cc(O)c12 [compound 2, genistein]
- ERβ binding selectivity: 20 fold
